In patent US9057727B2, “Screening methods using G-protein coupled receptors and related compositions” (The General Hospital Corporation, priority 2007, dated 2015):
pEC50, pIC50: −log10 of the molar value. Where two headings read alike, the source gives them in different places. Peptide text beside a SMILES is read from it.

Columns and labels:
[1] = system: LLCPK1-B64 cells or SaOS-2 cells; assay: cAMP screen of substituted PTHrP(1-28) analogs (% parent); type: cell-based; details: parent PTHrP(1-28)NH
In short: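 LLCPK1-B64 or SaOS-2 cells exposed to peptide analogs at 3×10^−9M with IBMX for 30 minutes at room temperature, then cAMP measured. Each analog's response expressed as percentage of that for parent PTHrP(1-28).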

[2] = Plasma cAMP in C57BL/6 mice after intravenous injection; type: in vivo; details: i.v. (Example 4)
MC3T3-E1 cells = assay: cAMP in MC3T3-E1 cells, dose-response; type: cell-based
Experimental: In the 1-30 scaffold, Gly, Ser, Leu, Asn, Gln, Trp, Glu, and Lys were substituted at position 29; Gly, Ser, Leu, Asn, Asp, Trp, and Lys were substituted at position 30; and Ser, Leu, Asn, Val, Trp, Glu, and Lys were substituted at position 31. […] These peptides were tested for cAMP activity in MC3T3-E1 cells.

[3] = target: T1, human PTHR, G protein-uncoupled conformation (R^0) (Homo sapiens, UniProt Q03431); assay: Competition binding to R0 conformation of hPTHR (COS-7 membranes, GTPγS, 125I-PTH(1-34) tracer); details: Table 2; for R0/RG selectivity: hPTHR; for pIC50: read-out: R^0 binding affinity hPTHR IC50
T1 construct: expressed in transfected cells; host or cells: COS-7, transient (Fugene-6)
T1 sequence (Q03431 27-593): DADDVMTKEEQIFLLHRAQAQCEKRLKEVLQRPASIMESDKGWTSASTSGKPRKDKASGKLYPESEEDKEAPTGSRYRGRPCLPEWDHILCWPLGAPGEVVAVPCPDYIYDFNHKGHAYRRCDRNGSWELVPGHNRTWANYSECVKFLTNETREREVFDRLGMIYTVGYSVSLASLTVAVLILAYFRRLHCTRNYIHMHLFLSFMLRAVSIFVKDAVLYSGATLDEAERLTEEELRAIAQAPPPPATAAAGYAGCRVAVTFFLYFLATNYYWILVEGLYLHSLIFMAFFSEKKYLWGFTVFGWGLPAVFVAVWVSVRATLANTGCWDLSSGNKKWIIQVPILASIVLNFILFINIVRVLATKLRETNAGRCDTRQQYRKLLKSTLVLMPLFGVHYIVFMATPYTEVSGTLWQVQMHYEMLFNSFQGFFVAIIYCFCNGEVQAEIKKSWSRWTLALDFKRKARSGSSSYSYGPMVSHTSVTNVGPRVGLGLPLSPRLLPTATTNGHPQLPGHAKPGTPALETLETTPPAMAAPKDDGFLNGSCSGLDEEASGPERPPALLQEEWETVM
In short: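 Membranes from hPTHR-transfected COS-7 cells (20-100 μg/mL protein) incubated 90 min with radioligand (~150,000 cpm/ml) and unlabeled ligands, then filtered. Specific binding expressed as % of binding without competitor.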

[4] = target: T2, human PTHR, G protein-coupled conformation (RG) (Homo sapiens, UniProt Q03431); assay: Competition binding to RG conformation of hPTHR (COS-7 membranes, GαsND, 125I-[Aib1,3,M]PTH(1-15) tracer); details: for pIC50: Table 2, read-out: RG binding affinity hPTHR IC50
T2 construct: expressed in transfected cells; host or cells: COS-7, transient (Fugene-6); membranes
T2 sequence (Q03431 27-593): T1 sequence (Q03431 27-593)

SaOS cells = assay: cAMP production in SaOS cells, dose-response; type: cell-based
human PTH1 receptor = target: T3, human PTH1 receptor (Homo sapiens, UniProt Q03431); assay: cAMP signaling dose-response in HKRK-B7 cells; type: cell-based; details: 15 min, 37° C., IBMX
T3 construct: expressed in transfected cells
T3 sequence (Q03431 27-593): T1 sequence (Q03431 27-593)
Experimental: In the cAMP experiments of FIG. 14, HKRK-B7 were seeded in 96 well plates at 1×10^5 cells/well and incubated overnight. On the following day, the cells were washed once with […] of binding buffer (50 mM Tris-HCl, pH 7.7, 100 mM NaCl, 5 mM KCl, 2 mM CaCl2, 5% heat-inactivated horse serum, 0.5% heat-inactivated fetal bovine serum), followed by addition of 100 μl cAMP assay buffer (DMEM, 2 mM IBMX, 1 mg/ml bovine serum albumin, 35 mM Hepes-NaOH, pH 7.4) on ice. […] After removing the medium, the plates were placed on powdered dry ice to freeze the cells and then removed from dry ice. The cells were thawed with 50 μl of 50 mM HCl and frozen again on dry ice. The level of intracellular cAMP was measured with a commercially available cAMP EIA kit (Biotrack cAMP EIA system, GE Healthcare).
HKRK-B, which are LLC-PK1 cells over-expressing human PTH1 receptor at levels of 9.5×10^5 per cell were used in the cAMP signaling assay. The cells were cultured at 37° C. in a humidified atmosphere containing 5% CO2 in Dulbecco's modified Eagle's medium (DMEM), supplemented with 10% fetal bovine serum (Hyclone), 100 units/ml penicillin G, and 100 μg/ml streptomycin sulfate (Invitrogen Corp). […] All peptides were dissolved at 1 mM in 10 mM acetic acid, and stored at −80° C. The cAMP stimulation assay was performed as described above for HKRK-B7 cells. […] Cells were treated for 15 minutes at 37° C. with varying concentrations of ligands in the presence of IBMX.

[5] = Table 2, read-out: MC3T3-E1 cAMP EC50
[6] = Table 2, read-out: SaOS camp EC50
[7] = Table 3, read-out: dose-response cAMP in SaOS (EC50)

| pEC50 (MC3T3-E1 cells; [5]) | R0/RG selectivity [3] | pIC50 [3] | pIC50 [4] | pEC50 (SaOS cells; [6]) | pEC50 (SaOS cells; [7]) | cAMP in HKRK-B7 cells Max (human PTH1 receptor) [pm/well] | pEC50 (MC3T3-E1 cells; Table 3, read-out: dose-response cAMP in MC3T3-E1 (EC50)) | Structure (SMILES) | screen cAMP (% parent) [1] [% parent] | plasma cAMP 10 minutes after injection, in words [2] | cAMP-inducing activity compared with parent, in words (SaOS cells) | cAMP potency and RG binding affinity compared with PTH(1-34), in words [4] |
| --- | --- | --- | --- | --- | --- | --- | --- | --- | --- | --- | --- | --- |
| 10.08 | 18317 | 5.76 | 10.00 | 11.00 | 11.00 | – | – | CC[C@H](C)[C@H](NC(=O)[C@H](CC(C)C)NC(=O)[C@H](CCCCN)NC(=O)[C@H](CC(C)C)NC(=O)[C@H](CC(C)C)NC(=O)[C@H](Cc1ccccc1)NC(=O)[C@H](C)NC(=O)[C@H](CCCNC(=N)N)NC(=O)[C@H](CCCNC(=N)N)NC(=O)[C@H](CCCNC(=N)N)NC(=O)[C@H](CCC(=O)O)NC(=O)[C@H](CC(=O)O)NC(=O)[C@H](CCC(N)=O)NC(=O)[C@@H](NC(=O)[C@H](CO)NC(=O)[C@H](CCCCN)NC(=O)CNC(=O)[C@H](CCCCN)NC(=O)[C@H](CC(=O)O)NC(=O)[C@H](Cc1c[nH]cn1)NC(=O)[C@H](CC(C)C)NC(=O)[C@H](CC(C)C)NC(=O)[C@H](CCC(N)=O)NC(=O)[C@H](Cc1c[nH]cn1)NC(=O)[C@H](CCC(=O)O)NC(=O)[C@H](CO)NC(=O)[C@@H](NC(=O)[C@H](C)N)C(C)C)[C@@H](C)CC)C(N)=O [E18, A22, L25, K26-THrP(1-28)NH, E18,A22,L25,K26-PTHrP(1-28)] (H-AVSEHQLLHDKGKSIQDERRRAFLLKLI-NH2; N-terminus assumed) | 340 | Marked enhancements | Marked enhancements of cAMP-inducing activity | – |
| 10.27 | 6971 | 6.51 | 10.40 | 11.70 | 11.70 | 56.4 | 10.27 | CC[C@H](C)[C@H](NC(=O)[C@H](CC(C)C)NC(=O)[C@H](CCCCN)NC(=O)[C@H](CC(C)C)NC(=O)[C@H](CC(C)C)NC(=O)[C@H](Cc1ccccc1)NC(=O)[C@H](C)NC(=O)[C@H](CCCNC(=N)N)NC(=O)[C@H](CCCNC(=N)N)NC(=O)[C@H](CCCNC(=N)N)NC(=O)[C@H](C)NC(=O)[C@H](CC(=O)O)NC(=O)[C@H](CCC(N)=O)NC(=O)[C@@H](NC(=O)[C@H](CO)NC(=O)[C@H](CCCCN)NC(=O)CNC(=O)[C@H](CCCCN)NC(=O)[C@H](CC(=O)O)NC(=O)[C@H](Cc1c[nH]cn1)NC(=O)[C@H](CC(C)C)NC(=O)[C@H](CC(C)C)NC(=O)[C@H](CCC(N)=O)NC(=O)[C@H](Cc1c[nH]cn1)NC(=O)[C@H](CCC(=O)O)NC(=O)[C@H](CO)NC(=O)[C@@H](NC(=O)[C@H](C)N)C(C)C)[C@@H](C)CC)C(N)=O [A18, 22, L25, K26-PTHrP(1-28)NH, A18,22,L25,K26-PTHrP(1-28)] (H-AVSEHQLLHDKGKSIQDARRRAFLLKLI-NH2; N-terminus assumed) | 305 | Marked enhancements | Marked enhancements of cAMP-inducing activity | cAMP potency and RG binding affinity that is greater than that of PTH(1-34) |
